Reference: patent publication US11572590B2, “Methods for evaluating tumor cell spheroids using 3D microfluidic cell culture device” (Dana-Farber Cancer Institute, Inc., priority 2017, dated 2023)
Where two headings read alike, the source gives them in different places.

Assays:
MB49 allograft = test: MB49 allograft, Compound 1 and anti-PD-L1 combination in vivo; design: species or system mouse; conditions: Cmpd1 + αPD-L1
TBK1 = target: T1, TBK1 (Homo sapiens, UniProt Q9UHD2); test: SelectScreen Kinase Profiling, IC50 for TBK1; type: biochemical; conditions: ATP Km app, ZLYTE; for inhibition: TBK1
T1 sequence (Q9UHD2 1-729): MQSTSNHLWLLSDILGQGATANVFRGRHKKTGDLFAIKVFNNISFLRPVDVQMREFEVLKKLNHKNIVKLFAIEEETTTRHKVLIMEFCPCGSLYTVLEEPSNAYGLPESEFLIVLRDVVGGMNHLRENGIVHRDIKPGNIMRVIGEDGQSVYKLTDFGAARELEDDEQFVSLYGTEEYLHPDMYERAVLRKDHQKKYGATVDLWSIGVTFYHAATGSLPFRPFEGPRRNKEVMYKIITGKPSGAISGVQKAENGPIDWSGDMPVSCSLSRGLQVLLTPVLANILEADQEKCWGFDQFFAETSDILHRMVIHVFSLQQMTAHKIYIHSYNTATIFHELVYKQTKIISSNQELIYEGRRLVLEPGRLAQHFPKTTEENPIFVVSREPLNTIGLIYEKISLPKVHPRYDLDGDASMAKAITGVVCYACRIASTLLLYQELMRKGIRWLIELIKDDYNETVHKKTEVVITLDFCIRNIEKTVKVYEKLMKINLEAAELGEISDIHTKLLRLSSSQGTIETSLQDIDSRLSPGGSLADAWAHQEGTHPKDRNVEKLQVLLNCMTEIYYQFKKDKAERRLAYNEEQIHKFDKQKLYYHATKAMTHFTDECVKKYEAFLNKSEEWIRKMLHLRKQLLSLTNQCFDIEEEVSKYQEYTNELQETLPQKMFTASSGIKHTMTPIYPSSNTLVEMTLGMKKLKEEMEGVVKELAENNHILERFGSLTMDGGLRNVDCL
Description: (§1) Biochemical single point inhibition and IC50 concentrations for TBK1, IKKε (IKBKE), and off-target kinases were determined at ThermoFisher Scientific using SelectScreen Kinase Profiling Services (Madison, Wis., USA) (Tables S4A and S4B-1-7). To determine cellular potency, the human colorectal cancer carcinoma cell line HCT116 (ATCC, Manassas, Va.) was maintained in T175 flasks in complete RPMI medium; RPMI 1640 supplemented with 10% FBS, 1× Penicillin-Streptomycin solution and 1×MEM (non-essential amino acids). HCT116 cells were grown to 90-95% confluency in T175 flasks containing complete RPMI medium and transfected in bulk using Lipofectamine 2000 (Invitrogen, Carlsbad, Calif.) with 70 μg of ISG54-luciferase reporter plasmid (Elim Biopharmaceuticals Inc., Hayward, Calif.). The reporter plasmid contains a luciferase gene expression cassette under the transcriptional regulation of the promoter of the human interferon stimulated gene 54 (ISG54). Transfection of the cells was allowed to take place for 6 hours, after which the cells were harvested by treatment with 0.25% trypsin EDTA (Corning Inc., Corning, N.Y.). Trypsinized cells were added to 384-well poly-d-lysine treated black clear bottom tissue culture assay plates (Greiner Bio-One GmbH, Kremsmünster, Austria) at a density of 20,000 cells/well in 80 μL of complete RPMI medium and incubated overnight. After 16-18 hours post-transfection, the assay plates were washed with PBS (Corning Inc., Corning, N.Y.), followed by addition of 80 μL/well of serum-free RPMI 1640 medium containing 1× Penicillin-Streptomycin solution, 1×MEM and 350 nL of DMSO or titrations of Compound 1. Compound 1 titrations were generated by 1.5-fold dilution steps in two overlapping serial dilution series to generate a 40-point compound dose range. After incubation at 37° C. for 1 hour, the cells were stimulated with Poly(I:C) (InvivoGen, San Diego, Calif.) at a final concentration of 15 μg/mL in Optimem media (Life Technologies, Rockville, Md.). The assay plates were incubated for 5 hours at 37° C., followed by addition of One-Glo luciferase firefly reagent (Promega, Madison, Wis.) at 1:1 volume/well and luminescence was measured in an EnVision Multilabel Plate Reader (PerkinElmer, Santa Clara, Calif.). The EC50 values were calculated from the fit of the dose-response curves to a four-parameter equation. All EC50 values represent geometric mean values of a minimum of four determinations.

IKKε (IKBKE) = target: T2, IKKε (IKBKE) (Homo sapiens, UniProt Q14164); test: SelectScreen Kinase Profiling, IC50 for IKKε (IKBKE); type: biochemical; conditions: ATP Km app, ZLYTE; for inhibition: IKBKE (IKK epsilon)
T2 sequence (Q14164 1-716): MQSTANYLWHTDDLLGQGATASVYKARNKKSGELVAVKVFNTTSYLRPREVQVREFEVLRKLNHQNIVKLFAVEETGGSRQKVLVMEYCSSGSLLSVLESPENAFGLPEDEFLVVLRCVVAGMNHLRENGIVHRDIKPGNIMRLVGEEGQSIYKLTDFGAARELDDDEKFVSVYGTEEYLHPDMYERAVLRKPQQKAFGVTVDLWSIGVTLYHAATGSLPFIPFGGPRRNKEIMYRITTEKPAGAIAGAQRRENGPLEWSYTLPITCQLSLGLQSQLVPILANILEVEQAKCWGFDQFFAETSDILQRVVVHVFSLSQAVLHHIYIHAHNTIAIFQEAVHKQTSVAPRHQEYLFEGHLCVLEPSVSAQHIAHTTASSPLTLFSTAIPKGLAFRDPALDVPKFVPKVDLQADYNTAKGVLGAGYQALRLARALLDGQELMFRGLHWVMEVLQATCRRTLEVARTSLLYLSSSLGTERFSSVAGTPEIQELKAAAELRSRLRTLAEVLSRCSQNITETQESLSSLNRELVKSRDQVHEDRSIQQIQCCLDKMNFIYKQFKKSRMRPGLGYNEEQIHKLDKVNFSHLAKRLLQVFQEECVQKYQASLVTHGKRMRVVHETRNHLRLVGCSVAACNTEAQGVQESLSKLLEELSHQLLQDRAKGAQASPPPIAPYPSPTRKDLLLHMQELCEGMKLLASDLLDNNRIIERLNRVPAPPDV
Description: as §1

## N#Cc1cc(-c2ncnc(Nc3ccc(N4CCN(C5COC5)CC4)cc3)n2)ccc1OC1CCOCC1 [Compound 1, 5-(4-((4-(4-(oxetan-3-yl)piperazin-1-yl)phenyl)amino)-1,3,5-triazin-2-yl)-2-((tetrahydro-2H-pyran-4-yl)oxy)benzonitrile]
MB49 allograft
  response to combination treatment in vivo, MB49 bladder carcinoma model: enhanced response
TBK1; read-out: % Inhibition 1
  inhibition: 91%
TBK1; read-out: % Inhibition 2
  inhibition: 99%
TBK1; read-out: % Inhibition Avg
  inhibition: 95%
TBK1
  Hillslope: 1.12
  IC50: 1.04 nM
TBK1; IC50 relative to IKBKE IC50
  fold selectivity (IKBKE): 0.2 fold
TBK1; IC50 relative to TBK1 IC50
  fold selectivity (TBK1): 1.0 fold
IKKε (IKBKE); read-out: % Inhibition 1
  inhibition: 106%
IKKε (IKBKE); read-out: % Inhibition 2
  inhibition: 103%
IKKε (IKBKE); read-out: % Inhibition Avg
  inhibition: 105%
IKKε (IKBKE)
  Hillslope: 1.06
  IC50: 5.59 nM
IKKε (IKBKE); IC50 relative to IKBKE IC50
  fold selectivity (IKBKE): 1.0 fold
IKKε (IKBKE); IC50 relative to TBK1 IC50
  fold selectivity (TBK1): 5.4 fold
